Laboratory results reported in patent US20200009281A1, “ODOR CONTROL AGENT” (priority 2017, published 2020).

Target: T1, Urease Enzyme from Canavalia ensiformis (Jack bean) (Canavalia ensiformis, UniProt P07374)
T1 construct: purchased
Assay: Headspace ammonia measurement over treated cat litter inoculated with synthetic urine and urease
Type: biochemical
Details: headspace ammonia after 1 day; 100 g NATIONAL 12 Bentonite cat litter plus active, 10 mL inoculant (urea solution + urease); Sensidyne detector tubes
Description: In a bottle add the following components: Urea (ACS Reagent Grade): 18.8 g, and 250 g of deionized water. The bottle is capped and mixed to dissolve urea. The pH of the solution is measured to confirm the pH is between 6.5 and 7.
Immediately before use, mix 6.25 mL of Urease Enzyme from Canavalia ensiformis (Jack bean) in Glycerol (Type III, 500-800 units/mL) with the full volume of Synthetic Urine prepared above.
Charge a plastic bag with 100 g of untreated NATIONAL™ 12 Bentonite (particle size approximately 1.6 mm) cat litter. Add the active component or mixture, as prepared in the Active Mixture Preparation section, to the bag containing the untreated litter. Seal the bag to prevent loss of material and mix by shaking for 30 seconds. Pour the mixture into a hexagonal plastic weighboat contained within a 1 gallon sealable plastic container having a lid with a hole covered with tape. […]
Low (0.2-20 ppm) or high (5-260 ppm) range […] ® Ammonia Gas Detector Tubes are used to quantify the headspace ammonia concentration. The following procedure is used for ammonia detection and quantification in each test sample. […] Read the scale at the maximum point of the stained layer (yellow in color). Read and report the concentration immediately after measurement. If the reading is off scale, for example 20 ppm for the low range tubes, repeat the measurement using the high range gas detector tube. […]

T1 sequence (P07374 whole entry, looked up): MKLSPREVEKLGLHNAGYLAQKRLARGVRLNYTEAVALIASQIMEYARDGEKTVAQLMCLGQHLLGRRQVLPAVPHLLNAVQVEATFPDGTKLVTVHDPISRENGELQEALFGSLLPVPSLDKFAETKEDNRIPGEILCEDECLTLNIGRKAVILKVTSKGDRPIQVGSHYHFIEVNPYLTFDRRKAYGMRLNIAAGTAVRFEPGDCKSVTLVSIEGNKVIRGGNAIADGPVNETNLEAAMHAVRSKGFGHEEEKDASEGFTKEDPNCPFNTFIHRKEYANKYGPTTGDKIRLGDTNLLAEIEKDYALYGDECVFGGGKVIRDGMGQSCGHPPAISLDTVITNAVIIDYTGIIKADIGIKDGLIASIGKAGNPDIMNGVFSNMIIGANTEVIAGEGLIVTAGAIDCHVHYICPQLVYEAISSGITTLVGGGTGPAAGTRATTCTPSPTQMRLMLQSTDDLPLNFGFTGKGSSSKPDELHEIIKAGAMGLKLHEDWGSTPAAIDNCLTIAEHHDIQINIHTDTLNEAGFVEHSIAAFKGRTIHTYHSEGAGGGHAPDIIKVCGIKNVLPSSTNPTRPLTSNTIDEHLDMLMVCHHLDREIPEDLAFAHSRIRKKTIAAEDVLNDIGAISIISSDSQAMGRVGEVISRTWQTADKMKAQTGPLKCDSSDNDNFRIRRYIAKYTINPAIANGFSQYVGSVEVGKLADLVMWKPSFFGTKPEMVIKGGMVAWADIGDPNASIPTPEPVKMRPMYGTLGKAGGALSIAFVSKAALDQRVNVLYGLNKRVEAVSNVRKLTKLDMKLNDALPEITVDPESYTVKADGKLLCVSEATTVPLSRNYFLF

Row | Structure (SMILES) | ppm Ammonia [ppm]
1 | O=C([O-])CN(CCN(CC(=O)[O-])CC(=O)O)CC(=O)O.[K+].[K+] [Example 2, K2EDTA] | 190
2 | O=C(O)CC(O)(CC(=O)O)C(=O)O [Example 3, Citric Acid] | 140
